# Calls of active or inactive are those of the source. The rule behind the calls is not given here.
# Assays:
# Helicobacter pylori [1] = test: (§1) Protection against Helicobacter pylori ATCC 43504 infected (MOI 300:1) in human GES1 cell injury model assessed as late apoptotic cells at 25 uM pre-treated for 2 hrs followed by bacterial infection measured after 6 hrs by Annexin/V-FITC staining based flow cytometry analysis (reference value: 11.95%); assay type: functional; conditions: time 8 hrs
# Helicobacter pylori [2] = test: as §1, with “200:1)” for “300:1)”, “early” for “late”, “31.93 %)” for “11.95%)”; assay type: functional; conditions: time 8 hrs
# Helicobacter pylori [3] = test: In vivo protection against Helicobacter pylori ATCC 43504 infected in BALB/c mouse gastric mucosa model assessed as effect on bleeding at high dose administered once a day for 2 weeks by HE staining based analysis; assay type: functional, organism-based
# Helicobacter pylori [4] = test: (§2) Protection against Helicobacter pylori ATCC 43504 infected (MOI 25:1) in human GES1 cell injury model assessed as necrotic cells at 25 uM pre-treated for 2 hrs followed by bacterial infection measured after 6 hrs by Annexin/V-FITC staining based flow cytometry analysis (reference value: 0.66%); assay type: functional; conditions: time 8 hrs
# Helicobacter pylori [5] = test: Protection against Helicobacter pylori ATCC 43504 infected (MOI 50:1) in human GES1 cell injury model assessed as necrotic cells at 25 uM pre-treated for 2 hrs followed by bacterial infection measured after 6 hrs by Annexin/V-FITC staining based flow cytometry analysis (reference value: 2.85%); assay type: functional; conditions: time 8 hrs
# Helicobacter pylori [6] = test: In vivo protection against Helicobacter pylori ATCC 43504 infected in BALB/c mouse gastric mucosa model assessed as appearance of intact tissue structure at 25 mg/kg administered once a day for 2 weeks by HE staining based analysis; assay type: functional, organism-based
# Helicobacter pylori [7] = test: Antibacterial activity against Helicobacter pylori ATCC 43504 assessed as inhibition of bacterial colonies at 8 ug/mL incubated for 24 hrs by crystal violet based staining based analysis relative to control; assay type: functional; design: scale not given: the % may be the effect or the level left; conditions: dose 8 µg/ml
# [8] = Acute toxicity in BALB/c mouse assessed as pathological abnormality in spleen at 1 g/Kg, po single dose administered for 7 days by HE staining based analysis; assay type: organism-based; conditions: in vivo, 1000 mg/kg, 168 h, time 7 day
# Helicobacter pylori [9] = test: Protection against Helicobacter pylori ATCC 43504 infected (MOI 50:1) in human GES1 cell injury model assessed as necrotic cells at 50 uM pre-treated for 2 hrs followed by bacterial infection measured after 6 hrs by Annexin/V-FITC staining based flow cytometry analysis (reference value: 2.85%); assay type: functional; conditions: time 8 hrs
# Helicobacter pylori [10] = test: Protection against Helicobacter pylori ATCC 43504 infected (MOI 50:1) in human GES1 cell injury model assessed as early apoptotic cells at 25 uM pre-treated for 2 hrs measured after 6 hrs by Annexin/V-FITC staining based flow cytometry analysis (reference value: 13.16 %); assay type: functional; conditions: time 8 hrs
# Helicobacter pylori [11] = test: Protection against Helicobacter pylori ATCC 43504 infected (MOI 100:1) in human GES1 cell injury model assessed as viable cells at 50 uM pre-treated for 2 hrs followed by bacterial infection measured after 6 hrs by Annexin/V-FITC staining based flow cytometry analysis (reference value: 68.36%); assay type: functional; conditions: time 8 hrs
# Helicobacter pylori [12] = test: In vivo protection against Helicobacter pylori ATCC 43504 infected in BALB/c mouse gastric mucosa model assessed as appearance of intact epithelium at high dose administered once a day for 2 weeks by HE staining based analysis; assay type: functional, organism-based
# Helicobacter pylori [13] = test: Protection against Helicobacter pylori ATCC 43504 infected (MOI 100:1) in human GES1 cell injury model assessed as necrotic cells at 25 uM pre-treated for 2 hrs followed by bacterial infection measured after 6 hrs by Annexin/V-FITC staining based flow cytometry analysis (reference value: 2.82%); assay type: functional; conditions: time 8 hrs
# Helicobacter pylori [14] = test: as §1, with “400:1)” for “300:1)”, “early” for “late”, “42.41 %)” for “11.95%)”; assay type: functional; conditions: time 8 hrs
# Helicobacter pylori [15] = test: Protection against Helicobacter pylori ATCC 43504 infected (MOI 400:1) in human GES1 cell injury model assessed as necrotic cells at 50 uM pre-treated for 2 hrs followed by bacterial infection measured after 6 hrs by Annexin/V-FITC staining based flow cytometry analysis (reference value: 6.36%); assay type: functional; conditions: time 8 hrs
# Helicobacter pylori [16] = test: as §1, with “early” for “late”, “50” for “25”, “34.57 %)” for “11.95%)”; assay type: functional; conditions: time 8 hrs
# [17] = Acute toxicity in BALB/c mouse assessed as pathological abnormality in lungs at 1 g/Kg, po single dose administered for 7 days by HE staining based analysis; assay type: organism-based; conditions: in vivo, 1000 mg/kg, 168 h, time 7 day
# Helicobacter pylori [18] = test: In vivo protection against Helicobacter pylori ATCC 43504 infected in BALB/c mouse gastric mucosa model assessed as appearance of intact tissue structure at low dose administered once a day for 2 weeks by HE staining based analysis; assay type: functional, organism-based
# [19] = Acute toxicity in BALB/c mouse assessed as change in daily behaviour at 1 g/Kg, po single dose administered for 7 days; assay type: organism-based; conditions: in vivo, 1000 mg/kg, 168 h, time 7 day
# Helicobacter pylori [20] = test: as §2, with “400:1)” for “25:1)”, “reduction in cell apoptosis rate” for “necrotic cells”, “56.03%)” for “0.66%)”; assay type: functional; design: scale not given: the % may be the effect or the level left; conditions: time 8 hrs
# [21] = Acute toxicity in BALB/c mouse assessed as change in body weight at 1 g/Kg, po single dose administered for 7 days; assay type: organism-based; conditions: in vivo, 1000 mg/kg, 168 h, time 7 day
# [22] = molecular target: Urease subunit alpha/Urease subunit beta (Helicobacter pylori (strain ATCC 700392 / 26695) (Campylobacterpylori), UniProt P69996); test: Inhibition of Helicobacter pylori ATCC 43504 urease preincubated for 75 mins followed by urea addition and measured after 30 mins by ELISA; assay type: protein-complex assay
# Urease subunit alpha/Urease subunit beta, sequence (P69996 whole entry): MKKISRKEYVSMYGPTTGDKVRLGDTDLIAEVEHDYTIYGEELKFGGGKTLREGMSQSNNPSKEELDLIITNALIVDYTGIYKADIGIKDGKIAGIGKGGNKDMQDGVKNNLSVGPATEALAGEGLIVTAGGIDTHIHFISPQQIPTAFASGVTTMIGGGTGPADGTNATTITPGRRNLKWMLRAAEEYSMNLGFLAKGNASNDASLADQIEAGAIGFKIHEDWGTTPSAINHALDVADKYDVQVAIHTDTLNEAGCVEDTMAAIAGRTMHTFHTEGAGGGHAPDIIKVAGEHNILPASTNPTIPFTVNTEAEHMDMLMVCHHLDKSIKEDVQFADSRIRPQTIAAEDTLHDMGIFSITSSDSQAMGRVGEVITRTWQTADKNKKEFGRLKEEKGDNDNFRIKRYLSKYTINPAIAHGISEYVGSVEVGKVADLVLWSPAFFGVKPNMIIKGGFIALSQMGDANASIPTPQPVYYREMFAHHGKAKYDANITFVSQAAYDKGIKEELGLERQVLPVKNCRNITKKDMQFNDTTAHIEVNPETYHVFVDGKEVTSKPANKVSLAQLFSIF
# Urease subunit alpha/Urease subunit beta, sequence (P14916 whole entry, further chain): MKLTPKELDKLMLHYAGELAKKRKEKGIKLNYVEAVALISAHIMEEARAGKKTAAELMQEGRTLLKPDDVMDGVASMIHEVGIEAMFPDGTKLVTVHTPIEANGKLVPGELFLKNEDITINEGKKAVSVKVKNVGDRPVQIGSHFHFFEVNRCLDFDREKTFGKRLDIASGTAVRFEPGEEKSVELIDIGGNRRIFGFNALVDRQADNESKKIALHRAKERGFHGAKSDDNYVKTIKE
# Helicobacter pylori [23] = test: Protection against Helicobacter pylori ATCC 43504 infected (MOI 50:1) in human GES1 cell injury model assessed as viable cells at 50 uM pre-treated for 2 hrs followed by bacterial infection measured after 6 hrs by Annexin/V-FITC staining based flow cytometry analysis (reference value: 81.14%); assay type: functional; conditions: time 8 hrs
# Helicobacter pylori [24] = test: Protection against Helicobacter pylori ATCC 43504 infected (MOI 200:1) in human GES1 cell injury model assessed as viable cells at 25 uM pre-treated for 2 hrs followed by bacterial infection measured after 6 hrs by Annexin/V-FITC staining based flow cytometry analysis (reference value: 57.87%); assay type: functional; conditions: time 8 hrs
# [25] = Acute toxicity in BALB/c mouse assessed as change in stool consistency at 1 g/Kg, po single dose administered for 7 days; assay type: organism-based; conditions: in vivo, 1000 mg/kg, 168 h, time 7 day
structure (smiles),measurement,setting,value
O=C(Oc1n[se]c2ccccc12)c1cccc(F)c1,Activity,Helicobacter pylori [1],0.02%
same,Activity,Helicobacter pylori [2],12.06%
same,Activity,Helicobacter pylori [3],inactive
same,Activity,Helicobacter pylori [4],0.02%
same,Activity,Helicobacter pylori [5],0.14%
same,Activity,Helicobacter pylori [6],Active
same,Activity,Helicobacter pylori [7],100%
same,Activity,[8],Non-toxic
same,Activity,Helicobacter pylori [9],0.02%
same,Activity,Helicobacter pylori [10],4.49%
same,Activity,Helicobacter pylori [11],96.82%
same,Activity,Helicobacter pylori [12],Active
same,Activity,Helicobacter pylori [13],0.43%
same,Activity,Helicobacter pylori [14],17.23%
same,Activity,Helicobacter pylori [15],2.26%
same,Activity,Helicobacter pylori [16],3.14%
same,Activity,[17],Non-toxic
same,Activity,Helicobacter pylori [18],Active
same,Activity,[19],Non-toxic
same,Activity,Helicobacter pylori [20],38.48%
same,Activity,[21],Non-toxic
same,IC50,[22],140 nM
same,Activity,Helicobacter pylori [23],97.06%
same,Activity,Helicobacter pylori [24],87.8%
same,Activity,[25],Non-toxic

# — ChEMBL document CHEMBL6103589, “Synthesis and evaluation of novel ebselen derivatives as urease inhibitors for combating Helicobacter pylori infections” (Eur J Med Chem, 2025)
